Laboratory results taken from patent publication US20210355107A1, “MULTI-SUBSTITUTED PYRIDONE DERIVATIVES AND MEDICAL USE THEREOF” (Beijing Yuezhikangtai Biomedicines Co., Ltd., priority 2018, published 2021).

Target: T1, kinase Axl (Homo sapiens, UniProt P30530)
T1 construct: purchased Carna 08-107
T1 sequence (P30530 473-894 limits assumed): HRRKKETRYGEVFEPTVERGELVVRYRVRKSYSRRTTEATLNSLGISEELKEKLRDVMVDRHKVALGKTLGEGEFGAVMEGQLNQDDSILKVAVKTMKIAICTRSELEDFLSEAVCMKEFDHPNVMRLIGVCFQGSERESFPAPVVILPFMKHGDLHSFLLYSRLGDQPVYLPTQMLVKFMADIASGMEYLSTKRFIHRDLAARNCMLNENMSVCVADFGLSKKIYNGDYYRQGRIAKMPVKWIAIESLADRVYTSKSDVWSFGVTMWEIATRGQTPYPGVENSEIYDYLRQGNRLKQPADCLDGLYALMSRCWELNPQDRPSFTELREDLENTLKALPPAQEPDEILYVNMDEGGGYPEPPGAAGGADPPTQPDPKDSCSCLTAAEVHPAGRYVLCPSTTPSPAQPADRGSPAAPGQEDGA
Assay: Mobility shift assay, inhibitory activity against kinase Axl
Assay type: biochemical
Settings: ATP at Km (81 μM), average of two independent experiments

Structure (SMILES)	IC50
CC(C)n1cc(C(=O)Nc2ccc(-c3cc(-c4cnn(C)c4)cnc3N)c(F)c2)c(=O)c(-c2ccc(F)cc2)c1C#N [Example 4, N-(4-(2-amino-5-(1-methyl-1H-pyrazol-4-yl)pyridin-3-yl)-3-fluorophenyl)-6-cyano-5-(4-fluorophenyl)-1-isopropyl-4-oxo-1,4-dihydropyridine-3-carboxamide]	0.28 nM
CCn1cc(-c2cnc(N)c(-c3ccc(NC(=O)c4cn(C(C)C)c(C#N)c(-c5ccc(F)cc5)c4=O)cc3F)c2)cn1 [Example 3, N-(4-(2-amino-5-(1-ethyl-1H-pyrazol-4-yl)pyridin-3-yl)-3-fluoro-phenyl)-6-cyano-5-(4-fluorophenyl)-1-isopropyl-4-oxo-1,4-dihydropyridine-3-carboxamide]	2.7 nM
CC(C)n1cc(C(=O)Nc2ccc(-c3cc(-c4cnn(C5CCNCC5)c4)cnc3N)c(F)c2)c(=O)c(-c2ccc(F)cc2)c1C#N [Example 2, N-(4-(2-amino-5-(1-(piperidin-4-yl)-1H-pyrazol-4-yl)pyridin-3-yl)-3-fluorophenyl)-6-cyano-5-(4-fluorophenyl)-1-isopropyl-4-oxo-1,4-dihydropyridine-3-carboxamide]	0.46 nM
CCn1cc(-c2cnc(N)c(-c3ccc(NC(=O)c4cn(C5CC5)c(C#N)c(-c5ccc(F)cc5)c4=O)cc3F)c2)cn1 [Example 10, N-(4-(2-amino-5-(1-ethyl-1H-pyrazol-4-yl)pyridin-3-yl)-3-fluorophenyl)-6-cyano-5-(4-fluorophenyl)-1-cyclopropyl-4-oxo-1,4-dihydropyridine-3-carboxamide]	2.8 nM
CC(C)n1cc(C(=O)Nc2cc(F)c(-c3cc(-c4cnn(C)c4)cnc3N)cc2F)c(=O)c(-c2ccc(F)cc2)c1C#N [Example 6, N-(4-(2-amino-5-(1-methyl-1H-pyrazol-4-yl)pyridin-3-yl)-2,5-difluorophenyl)-6-cyano-5-(4-fluorophenyl)-1-isopropyl-4-oxo-1,4-dihydropyridine-3-carboxamide]	2 nM
COc1cc2nccc(Oc3ccc(NC(=O)c4cn(C)c(C#N)c(-c5ccc(F)cc5)c4=O)cc3F)c2cc1OC [Example 21, 6-cyano-N-(4-((6,7-dimethoxyquinolin-4-yl)oxy)-3-fluoro-phenyl)-5-(4-fluorophenyl)-1-methyl-4-oxo-1,4-dihydropyridine-3-carboxamide]	3.2 nM
